Numbered stars: 1 amine (or outer) side, 2 acyl side, 3 side chain; on linkers, the order of the positions; unused ones are H or OH. Bridge positions count the residues as written; N and C are the ends. Square brackets hold non-standard residues; d marks the D form. Peptide text beside a SMILES is read from it. * marks the point of attachment. NMeAbu(3,3-F2-piperidino) = CN[C@@H](CCN1CCCC(F)(F)C1)C(=O)O; hPhe(3-Cl-4-CF3) = N[C@@H](CCc1ccc(C(F)(F)F)c(Cl)c1)C(=O)O; hPhe(3-F,4-CF3) = N[C@@H](CCc1ccc(C(F)(F)F)c(F)c1)C(=O)O; NMePhe(4-Cl) = CN[C@@H](Cc1ccc(Cl)cc1)C(=O)O; NMePhe(4-Me) = CN[C@@H](Cc1ccc(C)cc1)C(=O)O; NMedβ3hAla = C[C@H](CC(=O)[*:2])N(C)[*:1]; NMeGly(cPent) = CN[C@H](C(=O)O)C1CCCC1; NMeCha = CN[C@@H](CC1CCCCC1)C(=O)O; NMeChg = CN[C@H](C(=O)O)C1CCCCC1; NMeI = CC[C@H](C)[C@H](NC)C(=O)O; NMeD = CN[C@@H](CC(=O)O)C(=O)O; NMeL = CN[C@@H](CC(C)C)C(=O)O; NMeNva = CCC[C@H](NC)C(=O)O; NMeV = CN[C@H](C(=O)O)C(C)C; d(β3hA) = C[C@@H](N)CC(=O)O; Iva = CC[C@](C)(N)C(=O)O; NMeA = CN[C@@H](C)C(=O)O; Piperidide = C1CCN(*)CC1; Ac5c = NC1(C(=O)O)CCCC1; Aze = O=C(O)[C@@H]1CCN1; Thp = NC1(C(=O)O)CCOCC1; NPrGly = CCCNCC(=O)O; Sar = CNCC(=O)O
The molecules below were run on Human pancreatic cancer cell line AsPC-1 (G12D mutation Kras) (assay: AsPC-1 cell growth inhibition (AsPC-1 CGI)). Conditions: read-out: AsPC-1 cell growth inhibition, 50% growth inhibitory concentration (IC50 value); 96 hours, CellTiter-Glo, values classified in ranges.
Type: cell-based
Protocol: Test compounds were serially dilated with dimethyl sulfoxide, and 200 nL was then dispensed to a U-bottom 96-well plate using Labcyte Echo. […] The cell suspension was dispensed to a. plate containing a test compound at 100 μL per well and incubated at 37° C. in a 5% carbon dioxide gas incubator. 96 hours later, 80 μL of CellTiter-Glo (Promega) was added to each well and fluorescence was measured.

| Compound | IC50 [nM] |
| --- | --- |
| CC[C@H](C)[C@@H]1NC(=O)[C@H](CC(C)C)N(C)C(=O)C[C@@H](C(=O)N(C)C)N(C)C(=O)[C@H]([C@@H](C)CC)N(C)C(=O)[C@H](C)NC(=O)[C@@H](C)NC(=O)[C@H](CCc2ccc(C(F)(F)F)c(Cl)c2)NC(=O)CN(C)C(=O)[C@H](Cc2ccc(C)cc2)N(C)C(=O)[C@@H]2CCN2C(=O)[C@H](C)N(C)C1=O [Compound 382] ([NMeL]I[NMeA][Aze][NMePhe(4-Me)][Sar][hPhe(3-Cl-4-CF3)][dA]A[NMeI][NMeD]-NMe2; lactam N-11) | > 500 |
| CC[C@H](C)[C@@H]1NC(=O)[C@H](CC(C)C)N(C)C(=O)C[C@@H](C(=O)N(C)C)N(C)C(=O)[C@H](C2CCCC2)N(C)C(=O)[C@H](C(C)C)NC(=O)[C@H](CCN2CCCC(F)(F)C2)N(C)C(=O)[C@H](CCc2ccc(C(F)(F)F)c(Cl)c2)NC(=O)CN(C)C(=O)[C@H](CC2CCCCC2)N(C)C(=O)[C@@H]2CCN2C(=O)[C@H](C)N(C)C1=O [Compound 389] ([NMeL]I[NMeA][Aze][NMeCha][Sar][hPhe(3-Cl-4-CF3)][NMeAbu(3,3-F2-piperidino)]V[NMeGly(cPent)][NMeD]-NMe2; lactam N-11) | > 500 |
| CCC[C@H]1C(=O)N[C@@H]([C@@H](C)CC)C(=O)N(C)[C@@H](C)C(=O)N2CC[C@H]2C(=O)N(C)[C@@H](CC2CCCCC2)C(=O)N(C)CC(=O)N[C@@H](CCc2ccc(C(F)(F)F)c(Cl)c2)C(=O)N2CCC[C@H]2C(=O)NC2(CCCC2)C(=O)N(C)[C@@H](C2CCCC2)C(=O)N(C)[C@H](C(=O)N2CCCCC2)CC(=O)N1C [Compound 391] ([NMeNva]I[NMeA][Aze][NMeCha][Sar][hPhe(3-Cl-4-CF3)]P[Ac5c][NMeGly(cPent)][NMeD]-Piperidide; lactam N-11) | ≤ 20 |
| CCC[C@H]1C(=O)NC2(CCCC2)C(=O)N(C)[C@@H](C2CCCCC2)C(=O)N(C)[C@H](C(=O)N2CCCCC2)CC(=O)N(C)[C@@H](CC(C)C)C(=O)N[C@@H]([C@@H](C)CC)C(=O)N(C)CC(=O)N2CCC[C@H]2C(=O)N(C)[C@@H](CC2CCCCC2)C(=O)N(C)CC(=O)N[C@@H](CCc2ccc(C(F)(F)F)c(Cl)c2)C(=O)N1C [Compound 392] ([NMeL]I[Sar]P[NMeCha][Sar][hPhe(3-Cl-4-CF3)][NMeNva][Ac5c][NMeChg][NMeD]-Piperidide; lactam N-11) | > 500 |
| CC[C@H](C)[C@@H]1NC(=O)[C@H](CC(C)C)N(C)C(=O)C[C@@H](C(=O)N2CCCCC2)N(C)C(=O)[C@H](C(C)C)N(C)C(=O)[C@](C)(CC)NC(=O)[C@@H]2CCCN2C(=O)[C@H](CCc2ccc(C(F)(F)F)c(Cl)c2)NC(=O)CN(C)C(=O)[C@H](CC2CCCCC2)N(C)C(=O)[C@@H]2CCN2C(=O)[C@H](C)N(C)C1=O [Compound 394] ([NMeL]I[NMeA][Aze][NMeCha][Sar][hPhe(3-Cl-4-CF3)]P[Iva][NMeV][NMeD]-Piperidide; lactam N-11) | > 500 |
| CC[C@H](C)[C@@H]1NC(=O)[C@H](CC(C)C)N(C)C(=O)C[C@@H](C)NC(=O)[C@H](CC(C)C)N(C)C(=O)C2(CCCC2)NC(=O)[C@@H]2CCCN2C(=O)[C@H](CCc2ccc(C(F)(F)F)c(F)c2)NC(=O)CN(C)C(=O)[C@H](CC2CCCCC2)N(C)C(=O)CN(C)C(=O)CN(C)C1=O [Compound 402] (cyclo([Ac5c][NMeL][d(β3hA)][NMeL]I[Sar][Sar][NMeCha][Sar][hPhe(3-F,4-CF3)]P)) | > 500 |
| CCCN1CC(=O)N(C)[C@@H](CC2CCCCC2)C(=O)N(C)CC(=O)N[C@@H](CCc2ccc(C(F)(F)F)c(Cl)c2)C(=O)N2CCC[C@H]2C(=O)NC2(CCCC2)C(=O)N(C)[C@@H](C(C)C)C(=O)N[C@H](C)CC(=O)N(C)[C@@H](CC(C)C)C(=O)N[C@@H]([C@@H](C)CC)C(=O)N(C)CC1=O [Compound 405] (cyclo([Ac5c][NMeV][d(β3hA)][NMeL]I[Sar][NPrGly][NMeCha][Sar][hPhe(3-Cl-4-CF3)]P)) | > 500 |
| CC[C@H](C)[C@@H]1NC(=O)[C@H](CC(C)C)N(C)C(=O)C[C@@H](C)N(C)C(=O)[C@H](CC(C)C)N(C)C(=O)C2(CCOCC2)NC(=O)[C@@H]2CCCN2C(=O)[C@H](CCc2ccc(C(F)(F)F)c(F)c2)NC(=O)CN(C)C(=O)[C@H](CC2CCCCC2)N(C)C(=O)CN(C)C(=O)CN(C)C1=O [Compound 407] (cyclo(I[Sar][Sar][NMeCha][Sar][hPhe(3-F,4-CF3)]P[Thp][NMeL][NMedβ3hAla][NMeL])) | > 500 |
| CC[C@H](C)[C@@H]1NC(=O)[C@H](CC(C)C)N(C)C(=O)C[C@@H](C(=O)N2CCCCC2)NC(=O)[C@H](C(C)C)N(C)C(=O)C2(CCCC2)NC(=O)[C@@H]2CCCN2C(=O)[C@H](CCc2ccc(C(F)(F)F)c(Cl)c2)NC(=O)CN(C)C(=O)[C@H](CC2CCCCC2)N(C)C(=O)CN(C)C(=O)CN(C)C1=O [Compound 417] ([NMeL]I[Sar][Sar][NMeCha][Sar][hPhe(3-Cl-4-CF3)]P[Ac5c][NMeV]D-Piperidide; lactam N-11) | > 500 |
| CC[C@H](C)[C@@H]1NC(=O)[C@H](C(C)C)N(C)C(=O)C[C@@H](C)NC(=O)[C@H](CC(C)C)N(C)C(=O)C2(CCCC2)NC(=O)[C@H](CC(C)C)N(C)C(=O)[C@H](CCc2ccc(C(F)(F)F)c(F)c2)NC(=O)CN(C)C(=O)[C@H](Cc2ccc(Cl)cc2)N(C)C(=O)[C@@H]2CCN2C(=O)CN(C)C1=O [Compound 418] (cyclo([Ac5c][NMeL][d(β3hA)][NMeV]I[Sar][Aze][NMePhe(4-Cl)][Sar][hPhe(3-F,4-CF3)][NMeL])) | > 500 |

Reference: patent publication US20240148821A1, “PHARMACEUTICAL USE OF CYCLIC PEPTIDE COMPOUND” (CHUGAI SEIYAKU KABUSHIKI KAISHA, priority 2021, published 2024)
